This note sets out measurements from PubChem BioAssay AID624129 (Sanford-Burnham Center for Chemical Genomics, 2012).

Calls of active or inactive are those of the source. No rule for the calls is given here. A value given as a limit tells only on which side of the number the result lay.

Holding throughout (assay): CXCR6 receptor antagonists, dose response, cell-based, beta-arrestin, DiscoveRx, APJ panel, uHTS hits (AID 624129)
Test [1] deals with Apelin receptor (Homo sapiens) (UniProt P35414). The note with it: CXCR6 beta-arrestin (DiscoveRx) antagonist cell assay, APJ.
Test [2] concerns the target Beta-galactosidase (Escherichia coli) (UniProt Q8VNN2). The note with it: CXCR6 beta-arrestin (DiscoveRx) antagonist cell assay, b-galactosidase.
The target of test [3] is C-C chemokine receptor type 6 (Homo sapiens) (UniProt P51684). The note with it: CXCR6 beta-arrestin (DiscoveRx) antagonist cell assay.
Test [4] has as its target C-X-C chemokine receptor type 6 (Homo sapiens) (UniProt O00574). The note with it: CXCR6 beta-arrestin (DiscoveRx) antagonist cell assay; for inhibition: CXCR6, run 1, dose range 2, at 80 µM (top of the series).
Where [5] appears, read: dose range 1, mean IC50 across replicates.
[6] abbreviates: CCR6, dose range 1, mean IC50 across replicates.
Setting [7] is: CXCR6, dose range 1, mean IC50 across replicates.

Sequence of C-X-C chemokine receptor type 6 (Homo sapiens) (O00574 whole entry, looked up): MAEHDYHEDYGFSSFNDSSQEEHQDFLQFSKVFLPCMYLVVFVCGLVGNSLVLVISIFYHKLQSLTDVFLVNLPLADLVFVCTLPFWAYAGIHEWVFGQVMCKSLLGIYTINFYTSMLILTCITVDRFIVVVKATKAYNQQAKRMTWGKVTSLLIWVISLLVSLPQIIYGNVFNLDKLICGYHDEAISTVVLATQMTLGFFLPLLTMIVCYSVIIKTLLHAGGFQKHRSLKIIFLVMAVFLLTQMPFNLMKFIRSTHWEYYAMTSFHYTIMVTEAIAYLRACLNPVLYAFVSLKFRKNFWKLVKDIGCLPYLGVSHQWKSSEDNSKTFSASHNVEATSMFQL
Sequence of Beta-galactosidase (Escherichia coli) (Q8VNN2 whole entry, looked up): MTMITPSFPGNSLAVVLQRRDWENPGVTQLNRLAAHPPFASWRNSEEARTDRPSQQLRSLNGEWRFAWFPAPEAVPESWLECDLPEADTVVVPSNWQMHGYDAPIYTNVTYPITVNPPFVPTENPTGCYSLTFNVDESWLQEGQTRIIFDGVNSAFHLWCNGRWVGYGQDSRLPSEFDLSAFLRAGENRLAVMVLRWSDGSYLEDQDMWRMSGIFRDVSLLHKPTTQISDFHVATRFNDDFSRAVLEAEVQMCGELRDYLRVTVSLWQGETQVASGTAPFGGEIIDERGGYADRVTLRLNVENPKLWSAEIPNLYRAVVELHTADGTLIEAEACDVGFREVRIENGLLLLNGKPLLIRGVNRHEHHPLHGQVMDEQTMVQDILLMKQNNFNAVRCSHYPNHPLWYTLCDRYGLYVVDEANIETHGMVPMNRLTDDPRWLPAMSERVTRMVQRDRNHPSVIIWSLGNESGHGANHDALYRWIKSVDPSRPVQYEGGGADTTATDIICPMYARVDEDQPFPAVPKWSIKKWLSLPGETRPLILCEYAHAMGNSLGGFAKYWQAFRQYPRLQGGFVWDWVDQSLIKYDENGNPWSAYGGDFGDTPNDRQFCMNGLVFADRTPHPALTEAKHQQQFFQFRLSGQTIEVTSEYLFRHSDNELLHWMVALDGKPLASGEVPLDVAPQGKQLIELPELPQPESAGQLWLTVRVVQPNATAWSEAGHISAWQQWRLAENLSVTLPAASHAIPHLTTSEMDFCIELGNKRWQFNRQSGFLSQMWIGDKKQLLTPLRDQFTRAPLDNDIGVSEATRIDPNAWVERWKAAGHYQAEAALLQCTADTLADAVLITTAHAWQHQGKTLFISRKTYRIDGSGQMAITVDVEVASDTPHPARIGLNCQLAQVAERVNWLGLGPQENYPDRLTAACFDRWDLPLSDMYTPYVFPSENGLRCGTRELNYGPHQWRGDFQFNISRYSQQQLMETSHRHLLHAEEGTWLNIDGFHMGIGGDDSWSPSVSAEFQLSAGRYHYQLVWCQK

Broadly, the IC50 is the concentration at which inhibition is half-maximal. On to `C=C1CC(COc2cc(=O)oc3ccccc23)(c2ccccc2)OC1=O` (centres undefined), for which the 50% inhibitory concentration (IC50) was 11 µM in test [1] (dose range 1); 9.89 µM in test [1] (setting [5]); 7.31 µM in test [1] (run 2, dose range 1); 11.3 µM in test [1] (run 3, dose range 1); > 80 µM (inactive) in test [2] (dose range 1); over 80 µM in test [2] (setting [5]). Moreover, the IC50 in test [3] (CCR6, dose range 1) was 6.18 µM; in test [3] (setting [6]) it was 6.81 µM; in test [3] (CCR6, run 2, dose range 1), 7.45 µM; in test [4] (CXCR6, dose range 1) it was 7.8 µM; in test [4] (setting [7]), 6.87 µM; in test [4] (CXCR6, run 1, dose range 2), 6.11 µM. Besides, the half-maximal inhibitory concentration (IC50) in test [4] (CXCR6, run 2, dose range 1) was found to be 7.9 µM; in test [4] (CXCR6, run 2, dose range 2), 5.67 µM.
A word on the inhibition: it is the relative decrease from the control value, in per cent. On to `COc1ccc(C(=O)/C=C/C(=O)N(CC(=O)NC2CCCCC2)Cc2cccs2)c(O)c1`, for which the 50% inhibitory concentration (IC50) is over 80 µM in test [1] (setting [5]); over 80 µM in test [1] (run 2, dose range 1); over 80 µM in test [1] (run 3, dose range 1); > 80 µM (inactive) in test [2] (dose range 1); over 80 µM in test [2] (setting [5]); over 80 µM in test [3] (setting [6]). Moreover, the IC50 in test [3] (CCR6, run 2, dose range 1) is over 80 µM; in test [4] (CXCR6, dose range 1), > 80 µM (inactive); in test [4] (setting [7]) it was over 80 µM; in test [4] (CXCR6, run 2, dose range 1) it was over 80 µM. For the same compound, the inhibition in test [4] was -73%.
As for `Cc1[nH][nH]c(=O)c1C(c1c(C)[nH][nH]c1=O)c1cn(Cc2ccc(Cl)c(Cl)c2)c2ccccc12`, the IC50 in test [1] (dose range 1) was 19.4 µM; in test [1] (setting [5]), 37 µM; in test [1] (run 2, dose range 1), 59.3 µM; in test [1] (run 3, dose range 1), 32.3 µM; in test [2] (dose range 1) it was > 80 µM (inactive); in test [2] (setting [5]), over 80 µM. The IC50 in test [3] (CCR6, dose range 1) is 16.6 µM; in test [3] (setting [6]), 22.1 µM; in test [3] (CCR6, run 2, dose range 1), 27.6 µM; in test [4] (setting [7]), 26.6 µM; in test [4] (CXCR6, run 2, dose range 1) it was 24.8 µM. Moreover, the IC50 result in test [4] (CXCR6, dose range 1) is “inactive”. Also, the inhibition in test [4] was 115%.
On to `C/C(=N\NC(=O)c1ccc(F)cc1)c1ccccn1`, for which the IC50 was 0.853 µM in test [1] (dose range 1); 1.01 µM in test [1] (setting [5]); 1.4 µM in test [1] (run 2, dose range 1); 0.79 µM in test [1] (run 3, dose range 1); > 80 µM (inactive) in test [2] (dose range 1); over 80 µM in test [2] (setting [5]). The IC50 in test [3] (CCR6, dose range 1) was 0.987 µM; in test [3] (setting [6]) it was 1.19 µM; in test [3] (CCR6, run 2, dose range 1), 1.4 µM; in test [4] (CXCR6, dose range 1), 1.55 µM; in test [4] (setting [7]), 1.14 µM; in test [4] (CXCR6, run 1, dose range 2), 0.861 µM. Besides, the IC50 in test [4] (CXCR6, run 2, dose range 1) amounted to 1.37 µM; in test [4] (CXCR6, run 2, dose range 2), 0.779 µM.
Regarding `O=C(/C=C/c1cccc([N+](=O)[O-])c1)c1ccc([N+](=O)[O-])o1`, the IC50 was over 80 µM in test [1] (setting [5]); over 80 µM in test [1] (run 2, dose range 1); over 80 µM in test [1] (run 3, dose range 1); > 80 µM (inactive) in test [2] (dose range 1); over 80 µM in test [2] (setting [5]); 6.68 µM in test [3] (CCR6, dose range 1). In addition, the IC50 is 20.8 µM in test [3] (setting [6]); 34.9 µM in test [3] (CCR6, run 2, dose range 1); 19 µM in test [4] (setting [7]); 7.73 µM in test [4] (CXCR6, run 1, dose range 2); over 80 µM in test [4] (CXCR6, run 2, dose range 1); 7.58 µM in test [4] (CXCR6, run 2, dose range 2). In test [4] (CXCR6, dose range 1), the IC50 entry is “inactive”.
For `COc1cc2c(cc1OC)C1(CCCC1)CNC2c1cccc([N+](=O)[O-])c1` (centres undefined), the half-inhibitory concentration (IC50) was 19.9 µM in test [1] (dose range 1); 21.9 µM in test [1] (setting [5]); 21 µM in test [1] (run 2, dose range 1); 24.6 µM in test [1] (run 3, dose range 1); > 80 µM (inactive) in test [2] (dose range 1); over 80 µM in test [2] (setting [5]). Moreover, the IC50 in test [3] (CCR6, dose range 1) was 11.9 µM; in test [3] (setting [6]) it was 12.4 µM; in test [3] (CCR6, run 2, dose range 1), 13 µM; in test [4] (setting [7]), 14.1 µM; in test [4] (CXCR6, run 2, dose range 1), 12 µM. Further, in test [4] (CXCR6, dose range 1), the IC50 entry was “inactive”. Moreover, the inhibition in test [4] is 126%.
As for `N#CC(C#N)=C1C=CC=CN1/C(=C\c1ccco1)C(=O)c1ccc(Br)cc1`, the IC50 in test [1] (setting [5]) is over 80 µM; in test [1] (run 2, dose range 1), over 80 µM; in test [1] (run 3, dose range 1) it was over 80 µM; in test [2] (dose range 1) it was > 80 µM (inactive); in test [2] (setting [5]), over 80 µM; in test [3] (setting [6]), over 80 µM. In addition, the IC50 was over 80 µM in test [3] (CCR6, run 2, dose range 1); > 80 µM (inactive) in test [4] (CXCR6, dose range 1); over 80 µM in test [4] (setting [7]); over 80 µM in test [4] (CXCR6, run 2, dose range 1). The inhibition in test [4] stood at 19.9%.
